Laboratory results published in US4060652A (priority 1976, dated 1977).
Where two headings read alike, the source gives them in different places.

Legend:
rabbits = assay: Head-drop test in non-narcotized rabbits; assay type: in vivo
Procedure: In experiments (a total of twenty) on non-narcotized rabbits, the head-drop dose (HDD) was 0.022 ± 0.009 micromole/kg A complete blocking effect developed 1.5 to 2 minutes after administration of Tercuronium and persisted for 3 to 5 minutes. A few minutes later, the animal behaviour normalized. The same effect was attained with 0.18 ± 0.02 micromole/kg of α-tubocurarin (6 experiments) and 0.018 ± 0.001 mcM/kg of pancuronium (6 experiments). The time of onset and the duration of the blocking effect with all the three preparations were the same.

[1] = system: nervomuscular conduction, anterior tibial muscle; assay: Nervomuscular block in cats, indirect stimulation of anterior tibial muscle; assay type: in vivo
Procedure: The preparation was studied in acute experiments on cats, rabbits, mice and pigeons, in experiments on phrenico-diaphragm preparations of rats, and also on the straight muscle of a frog abdomen. The properties of Tercuronium were compared with those of α-tubocurarin and pancuronium.
(§1) Cats were narcotized (with chloralose, 50 mg per kg body weight, and urethane, 500 mg/kg, intraperitoneally) or decerebrated at the quadrigeminal bodies level. The lungs were ventilated artificially whenever necessary. Contractions of the anterior tibial muscle were recorded in isotonic concitions in response to electric stimulation of the peripheral part of n. peroneus with supramaximum pulses of 0.1 msec at a frequency of 0.1-100 Hz.

[2] = Effect on sympathetic ganglia, third eyelid contraction in cats; assay type: in vivo; conditions: cat, in vivo, iv, read-out: ganglioblocking dose as multiple of myoparalytic dose
Procedure: Experiments were carried out on narcotized cats. A peripheral part of the sympathetic column on the neck was stimulated with electric pulses at 5 Hz. The duration of the stimulus was 1 msec, the amplitude 5 V. The contractions of the third eyelid (nictiating membrane) and the arterial (carotid) pressure were recorded with a mercury pressure gauge. We determined the intravenous dose of Tercuronium, α-tubocurarin and pancuronium that decreased the height of contraction of the third eyelid by 50 to 60 percent in conditions of prolonged stimulation of the sympathetic column.

[3] = system: nervomuscular conduction, anterior tibial muscle; assay: Neostigmin antagonism of nervomuscular block in cats; assay type: in vivo
Procedure: as §1
For example, even with a 5-fold dose of tercuronium, muscle contractility was restored already in 2 to 5 minutes following a single injection of neostigmin in a dose of 0.1 mg/kg, and in 15-20 minutes the recovery of the contactile function was complete.
In the case of pancuronium and α-tubocurarin, the restoration within these short periods of time could only be attained with 2-3 fold doses of these muscle relaxants. If the dose of pancuronium was increased 4 to 5 times, weak contractions of the muscle were observed not sooner than in 9 to 10 minutes and the contraction was, restored completely only 30 minutes after the injection of neostigmin (six experiments). The restoration of muscle contractility is delayed even longer in the case of α-tubocurarin.

[4] = Lethality by paralysis of respiratory muscles in mice; conditions: mouse, in vivo, iv
Description: (§2) In experiments on albino mice, the dose of Tercuronium injected into the tail vein, that inhibited the symptom of turning from the lateral position in 50 percent of mice (ED50) was 0.06 mcM/kg (18 experiments); and 50 percent of mice perished from paralysis of the respiratory muscles (LD50) following an injection of 0.09 mcM/kg of Tercuronium.

[5] = system: nervomuscular conduction, vegetative ganglia, circulation; assay: Overall conclusions from animal experiments; assay type: in vivo, animals
Description: The results of the pharmacological studies of the proposed muscle relaxant Tercuronium, as compared with the known muscle relaxants, enable us to make the following conclusions.

albino mice = assay: Inhibition of turning from the lateral position in mice; assay type: in vivo; conditions: Mus musculus, iv; mice, turning from the lateral position; read-out: ED50
Description: as §2

[6] = Lethality by paralysis of respiratory muscles in rabbits; conditions: rabbit, in vivo
Description: In another series of experiments, we determined the intravenous dose of the muscle relaxants that caused death of 50% of the animals due to paralysis of the respiratory muscles -- lethal dose 50% (LD50).

arterial pressure = assay: Effect on arterial pressure in cats and rabbits; assay type: in vivo
Procedure: Experiments were carried out on narcotized cats and rabbits (50 mg/kg of chloralose and 500 mg/kg urethane, intraperitoneally) and also on cats decerebrated at the quadrigeminal level. The blood pressure in the carotid artery was recorded with a mercury pressure gauge. The preparations were injected intravenously.
When Tercuronium was given in a quantity ten times exceeding the myoparalytic dose (0.8 mcM/kg) an insignificant and transient reduction (10 to 20 mm Hg) of the blood pressure was observed. The animals (7 cats and 5 rabbits) tolerated injections of very large doses of Tercuronium, viz., 10-20 mcM/kg, which is 200 times higher than the myoparalytic dose. […] In all experiments, in 1 to 2 hours, the arterial pressure restored completely or was close to the initial level.

respiration = assay: Inhibition of respiration in narcotized and decerebrated cats (and rabbits); assay type: in vivo
Description: This developed simultaneously with the block of the nervomuscular conduction in the anterior tibial muscle. […] The same result was obtained in experiments on rabbits. The ratio of LD50 in experiments on rabbits and mice, as specified above, also provides data on the that Tercuronium produces on respiration.

[7] = system: nervomuscular conduction, ganglia, circulation; conditions: cited from earlier work

SMILES: CC(=O)O[C@H]1C[C@@H]2CC[C@@H]3[C@H](CC[C@@]4(C)[C@H]3C[C@H]([N+]3(C)CCCCC3)[C@@H]4OC(C)=O)[C@@]2(C)C[C@@H]1[N+]1(C)CCCCC1 [pancuronium, reference compound]
- ED (head drop) (rabbits; Oryctolagus cuniculus, non-narcotized rabbits, read-out: head-drop dose (HDD)): 0.018 ± 0.001 µmol/kg
- time of onset and duration of blocking effect, comparison (rabbits; all three preparations): the same
- mean duration of effect [1]: nine
- ED (95-100) ([1]; Felis catus, intravenous, 0.1 Hz, read-out: dose blocking nervomuscular conduction (95-100 percent)): 0.04 ± 0.001 µmol/kg
- selectivity ratio [2]: 30
- multiple of dose at which restoration within the short periods could be attained ([3]; cats, neostigmin): 2-3 fold
- time to complete restoration of contraction after neostigmin ([3]; dose increased 4 to 5 times, six experiments): 30 min
- number of myoparalytic doses whose blocking effect is completely removed by neostigmin ([3]; neostigmin 0.1 mg/kg intravenous, within five minutes): three
- LD50 [4]: 0.062 µmol/kg
- selectivity ratio ([4]; read-out: width of the muscle relaxing action (LD50/ED50)): 1.5
- arterial pressure and pulse rate ([5]; in vivo): stable rise in the arterial pressure, which results in increased hemorrhage in surgical operations and in accelerated pulse rate
- histamine, vegetative ganglia, blood pressure and heart frequency ([5]; myoparalytic dose): do not produce histamine or block vegetative ganglia
- ED50 (albino mice): 0.042 µmol/kg
- LD50 ([6]; intravenous): 0.026 µmol/kg
- selectivity ratio ([6]; read-out: LD50 to HDD ratio): 1.4
- effect on arterial pressure of 20-fold dose (arterial pressure; 20-fold dose): moderately depressive
- arterial pressure on doses that inhibit respiration (arterial pressure; active ventilation of the lungs): asphyxial rise in the arterial pressure
- effect on arterial pressure of myoparalytic (complete block) dose (arterial pressure; artificial ventilation): the arterial pressure did not drop either
- inhibition of respiration by blocking doses, comparison (respiration; from LD50 to ED50 ratio): equally inhibit respiration
- effect on respiration (respiration; narcotized and decerebrated cats): The same effect was observed
- conditions for tracheal intubation ([7]; 0.15 mg/kg): favourable conditions for tracheal intubation are provided
- duration of myoparalytic action ([7]; background): lasts for the same period of time as that of α-tubocurarin
- fold less active than α-tubocurarin in blocking conduction in sympathetic ganglia ([7]; background): 2.5 times
- histamine release, ganglia and circulatory effects ([7]; background): often accelerates the pulse rate and increases arterial pressure
- removal of myoparalytic action by proserpin ([7]; background): can be removed with proserpin, and cases with difficult decurarization occur less frequently than with α-tubocurarin
- histamine release, ganglia and circulatory effects ([7]; background, listed as Pancuronium): does not induce production of histamine from tissues, nor does it lower arterial pressure

SMILES: C[N+](C)(C)CCOC(=O)CCC(=O)OCC[N+](C)(C)C [succinylcholine, dicholine ester of succinic acid]
- duration of action in patients with hepatic dysfunction and low cholinesterase ([7]; common dose): can last for a period of a few hours

SMILES: CC[N+](CC)(CC)CCOc1cccc(OCC[N+](CC)(CC)CC)c1OCC[N+](CC)(CC)CC [pyrolaxon]
- histamine release, ganglia and circulatory effects ([7]; background): blocks parasympathetic ganglia and produces tachycardia
